Measured values reported in patent US6630482B1, “CFTR channel activator compounds and pharmaceutical compositions containing same” (Centre National de la Recherche Scientifique, priority 1996, dated 2003).
Read-outs that look alike come from different tables or passages of the source. Each block holds one compound with its values, some of them ahead of it.

Tests used:
CFTR channel [1] = target: T1, CFTR channel (Homo sapiens, UniProt P13569); test: Efflux of radioactive iodide in recombinant CHO (CFTR+) cells; format: cell-based; set-up: expressed in transfected cells; host or cells: CHO-K1 cells, vector pNUT; conditions: for activation at 500 µM: read-out: % activation relative to control; for effect on the efflux of iodide / CFTR channel activation: 500 μM
Description: (§1) Several types of cells are used for this study: the intestinal lines T84, Caco-2 and HT 29. Chinese hamster ovary (CHO-K1) cells were transfected with the aid of the vector pNUT (Tabcharani et al., 1991) with or without (control cells) incorporation of normal or mutated CFTR cDNA (Chang et al., 1993). The cells are kept in this specific medium and then inoculated at a low density on to glass slides and cultured at 37° C. (5% CO2), before the patch clamping experiments. The survival medium of the cells is composed of αMEM with foetal calf serum (7%) and antibiotics: 50 IU/ml penicillin and 50 μg/ml streptomycin and methotrexate (100 μM to 200 μM).
(§2) This technique enables the kinetics of the exit of iodide to be monitored. The cells are cultured in 12-well plates with a dilution to 1/10 after passage. On day 3, the drugs to be tested are dissolved in medium B (37° C.) according to the required concentration. The wells are washed twice with 1 ml of medium B NaOH, 0.1% glucose, which is then replaced by 1 ml of charging solution for 30 min.
(§3) The operation is repeated over 10 min and the cells are then detached with 1 ml of NaOH 0.1N SDS 0.1%. The contents of each well are collected in a haemolysis tube after agitation for 25 min, and the tubes are counted for 2 min in a gamma counter.
(§4) The study relates to molecules of the benzoquinolizinium family described above. They are tested for their ability to activate the CFTR channel. Screening of molecules as openers of the CFTR channel was carried out by measuring their effect on the efflux of radioactive iodide and on the transmembrane chloride currents (Becq et al., 1993a).
2) CHO cell: efflux of radioactive iodide in
CHO cells transfected with the CFTR chain (labelled CHO-CFTR (+) on FIG. 2B) in the presence or absence of the abovementioned activators.

CHO (CFTR−) cells = test: Efflux of radioactive iodide in control CHO (CFTR−) cells not transfected with CFTR; format: cell-based, Chinese hamster
Description: CHO cells which have not been transfected with the protein CFTR (labelled CHO-CFTR (−) on FIG. 2 B) in the presence or absence of the abovementioned activators:

CFTR channel [2] = target: T1, CFTR channel; test: Efflux of radioactive iodide in HT29 cells; format: cell-based; set-up: the human colon cell of the line HT29 which expresses the protein CFTR constitutively; endogenous in cells; host or cells: HT29 human colon cells; conditions: 500 μM
Description: as §1, §2, §3

intracellular cAMP = test: Level of intracellular cAMP in recombinant CHO cell; format: cell-based, Chinese hamster; conditions: after 5 min
Description: as §4
FIG. 12: Histograms representing the levels of cAMP (measured in nmol per mg of protein) in the CHO cells which have been transfected with the CFTR gene and have not been activated (basal), or have been activated by forskoline (forskoline), or have been activated by rolipram (rolipram), or have been activated by MPB-07 (MPB-07).

CFTR channel [3] = target: T1, CFTR channel; test: Efflux of radioactive iodide in Xenopus ovocyte injected with cRNA-CFTR; format: cell-based; conditions: Xenopus ovocyte expressing CFTR, 500 μM
CFTR channel [4] = target: T1, CFTR channel; test: Patch clamping, CFTR channel activation; format: cell-based; set-up: expressed in transfected cells; host or cells: CHO-K1 cells, vector pNUT; conditions: rolipram
Description: The patch clamping experiments are carried out on confluent cells. A fragment of the glass slide (cell support) is placed in an experimental chamber (volume 600 μl or 1 ml) on the platen of an inverted microscope fitted with phase contrast illumination (Olympus IMT2). The cell-attached and inside-out configurations are used (Hamill et al., 1981). The experiments are carried out at room temperature (20-22° C.). The currents are amplified with a LIST EPC 7 amplifier (Darmstadt, Germany) (filter of 3 kHz) with a low-pass filter of 2-5 kHz (6-pole Bessel filter) and recorded with a DAT (digital audio tape) after digitalization (16 bits) at 44 kHz. The data are then transferred to an Olivetti M28PC computer. The pipettes are made from glass tubes of 1 mm diameter (Clarke Electromedical Instrument) in two or three stages with a horizontal drawer (Flaming/Brown type, model P-87. Sutter. Inst. Co. USA). The pipettes filled with a solution of 150 mM NaCI have a resistance of between 4 and 12 MΩ. The potentials are expressed as the difference between the potential of the patch electrode and that of the bath. […] The diffusion potentials are evaluated from the potential of the electrode corresponding to a zero current (when the channels are closed). […] To determine the current-voltage ratio, the ionic current amplitudes are measured form amplitude histograms. […]

[5] = efflux of iodide, recombinant CHO (CFTR+) cell, MPB and phenanthrene 500 μM

T1 sequence (P13569 whole entry): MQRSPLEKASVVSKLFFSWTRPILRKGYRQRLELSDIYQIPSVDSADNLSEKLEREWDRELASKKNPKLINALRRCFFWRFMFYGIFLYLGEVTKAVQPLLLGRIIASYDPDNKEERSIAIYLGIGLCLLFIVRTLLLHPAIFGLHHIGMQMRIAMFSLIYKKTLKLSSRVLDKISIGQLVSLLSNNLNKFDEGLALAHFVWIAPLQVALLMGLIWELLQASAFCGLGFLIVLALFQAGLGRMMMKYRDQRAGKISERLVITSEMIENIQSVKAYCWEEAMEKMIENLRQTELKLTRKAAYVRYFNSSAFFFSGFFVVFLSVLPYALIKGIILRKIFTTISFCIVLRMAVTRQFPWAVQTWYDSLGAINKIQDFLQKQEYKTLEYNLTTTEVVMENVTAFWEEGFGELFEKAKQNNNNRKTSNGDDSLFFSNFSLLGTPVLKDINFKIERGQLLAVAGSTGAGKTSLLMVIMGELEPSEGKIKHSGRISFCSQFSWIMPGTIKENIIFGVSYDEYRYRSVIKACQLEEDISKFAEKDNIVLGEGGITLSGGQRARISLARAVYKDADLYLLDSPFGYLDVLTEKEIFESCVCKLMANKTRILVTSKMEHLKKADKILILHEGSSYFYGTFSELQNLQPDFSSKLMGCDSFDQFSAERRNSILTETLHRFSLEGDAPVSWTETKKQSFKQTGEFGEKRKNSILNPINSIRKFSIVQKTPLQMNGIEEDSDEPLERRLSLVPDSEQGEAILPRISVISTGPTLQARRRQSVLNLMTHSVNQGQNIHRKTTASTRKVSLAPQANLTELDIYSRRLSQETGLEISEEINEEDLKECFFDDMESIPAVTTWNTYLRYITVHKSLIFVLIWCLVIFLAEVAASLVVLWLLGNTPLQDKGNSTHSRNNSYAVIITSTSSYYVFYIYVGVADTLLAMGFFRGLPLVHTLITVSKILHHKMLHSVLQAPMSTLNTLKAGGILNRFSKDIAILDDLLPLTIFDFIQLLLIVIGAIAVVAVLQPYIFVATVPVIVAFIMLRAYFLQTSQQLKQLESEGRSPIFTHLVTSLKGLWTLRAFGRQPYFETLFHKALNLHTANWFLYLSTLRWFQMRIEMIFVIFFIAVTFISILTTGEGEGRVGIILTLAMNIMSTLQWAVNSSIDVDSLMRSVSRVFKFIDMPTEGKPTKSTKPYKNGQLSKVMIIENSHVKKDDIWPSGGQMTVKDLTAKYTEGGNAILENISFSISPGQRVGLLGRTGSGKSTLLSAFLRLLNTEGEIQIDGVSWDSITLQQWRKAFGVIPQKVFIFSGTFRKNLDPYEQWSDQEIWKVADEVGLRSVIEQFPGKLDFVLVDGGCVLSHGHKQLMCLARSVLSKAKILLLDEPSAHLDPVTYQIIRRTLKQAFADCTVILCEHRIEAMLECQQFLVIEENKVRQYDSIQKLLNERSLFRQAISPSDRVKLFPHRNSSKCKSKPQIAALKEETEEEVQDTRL

Compound: CNc1ccc2oc(C[C@H]3O[C@@]4(CC[C@H]3C)O[C@H]([C@H](C)C(=O)c3ccc[nH]3)[C@H](C)C[C@H]4C)nc2c1C(=O)O [Compound A23187, reference compound]
effect on the efflux of iodide (CFTR channel [1]; CHO (CFTR+) cells, 10 μM): has no effect | effect on the basal level of the efflux of iodide (CHO (CFTR−) cells; 10 μM): do not significantly modify the basal level of the efflux of iodide

Compound: Nc1cc2ccccc2c2ccccc12 [MPB-24]
activation at 500 µM (CFTR channel [1]): 18%

Compound: Oc1cc2ccccc2c2ccccc12 [MPB-25]
activation at 500 µM (CFTR channel [1]): 25%

Compound: Nc1ncnc2c1nc(Sc1ccc(Cl)cc1)n2[C@@H]1O[C@@H]2COP(=O)(O)O[C@H]2[C@H]1O [c-cpt-AMP, cyclic 8-(4-chlorophenylthio)-adenosine 3′,5′-monophosphate]
effect on the basal level of the efflux of iodide (CHO (CFTR−) cells; 500 μM): has no effect

Compound: C=C[C@@]1(C)CC(=O)[C@]2(O)[C@@]3(C)[C@@H](O)CCC(C)(C)[C@@H]3[C@H](O)[C@H](OC(C)=O)[C@@]2(C)O1 [forskoline]
% activation relative to control (CFTR channel [1]; efflux of iodide, recombinant CHO (CFTR+) cell, forskoline 5 μM): 109% | effect on cAMP, multiplication factor (intracellular cAMP; 5 μM): about 4 | effect on the basal level of the efflux of iodide (CHO (CFTR−) cells; 5 μM): do not significantly modify the basal level of the efflux of iodide

Compound: c1ccc2c(c1)ccc1ccccc12 [phenanthrene, reference compound]
effect on the efflux of iodide / CFTR channel activation (CFTR channel [1]; CHO (CFTR+) cells): does not activate the CFTR channel | activation at 500 µM (CFTR channel [1]; [5]): < 5%

Compound: COc1ccc(C2CNC(=O)C2)cc1OC1CCCC1 (centres unmarked) [rolipram]
effect as a CFTR activator measured by the flow of iodide (CFTR channel [1]; rolipram): has no effect as a CFTR activator | level of cell cAMP (intracellular cAMP; 10 μM): The same level of cAMP is reached in the presence of the compounds MPB-07 and rolipram | effect as a CFTR activator measured by patch clamping (CFTR channel [4]): has no effect as a CFTR activator

The next lines start with results.

% activation relative to control (CFTR channel [1]; [5]): 53%
Compound: 6-Hydroxbenzo[c]quinolizinium Bromide [MPB-06]

activation at 500 µM (CFTR channel [1]; [5]): 18%
Compound: Nc1cc2cccc[n+]2c2cc(Cl)ccc12 [MPB-03, 6-Amino, 9-Chlorobenzo[c]quinolizinium Chloride]

activation at 500 µM (CFTR channel [1]; [5]): 11%
Compound: Nc1cc2cccc[n+]2c2cccc(Cl)c12 [MPB-04, 6-Amino, 7-Chlorobenzo[c]quinolizinium Chloride]

activation at 500 µM (CFTR channel [1]; [5]): 20%
Compound: Oc1cc2cccc[n+]2c2ccccc12 [MPB-05, 6-Hydroxybenzo[c]quinolizinium Chloride]

activation at 500 µM (CFTR channel [1]; [5]): 110% | effect on the efflux of iodide (CFTR channel [3]): stimulates the efflux of iodide
Compound: Oc1cc2cccc[n+]2c2c(Cl)cccc12.[Cl-] [MPB-07, 6-Hydroxy, 10-Chlorobenzo[c]quinolizinium Chloride]
effect on the efflux of iodide / CFTR channel activation (CFTR channel [1]; CHO (CFTR+) cells): comparable in intensity and rate to that induced by forskoline (5 μM) | effect on the efflux of iodide (CFTR channel [2]): triggers an efflux of iodide, with a similar rate and amplitude, which is increased with respect to the basal level | level of cell cAMP (intracellular cAMP; 500 μM): The same level of cAMP is reached in the presence of the compounds MPB-07 and rolipram | effect on the basal level of the efflux of iodide (CHO (CFTR−) cells; 500 μM): do not significantly modify the basal level of the efflux of iodide

activation at 500 µM (CFTR channel [1]; [5]): 22%
Compound: Oc1cc2cccc[n+]2c2cc(Cl)ccc12 [MPB-08, 6-Hydroxy, 9-Chlorobenzo[c]quinolizinium Chloride]

% activation relative to control (CFTR channel [1]; [5]): 30%
Compound: Nc1cc2cccc[n+]2c2ccccc12 [MPB-26, 6-Aminobenzo[c]quinolizium]

activation at 500 µM (CFTR channel [1]; [5]): 95%
Compound: Oc1cc2cccc[n+]2c2cccc(Cl)c12 [MPB-27, 6-Hydroxy, 7-Chlorobenzo[c]quinolizinium Chloride]
